Values quoted from earlier work in US6740653B2, “Shelf life extension of microemulsions containing active aza biocide” (ISP Investments Inc., priority 2001, dated 2004).

Cc1ccc(/N=C/N(C)/C=N/c2ccc(C)cc2C)c(C)c1 [Amitraz]
soluble in water: 1 mg/L
